T/C data for 23 molecules are collected here from PubChem BioAssay AID270 (DTP/NCI, 2004).

The assay has as its system BDF1 mice, s.c. Lewis lung carcinoma, T/C %. The assay is described as follows: NCI In Vivo Anticancer Drug Screen. Data for tumor model Lewis Lung Carcinoma (subcutaneous) in B6D2F1 (BDF1) mice. In a few lines:
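First, mice carry a transplantable tumor. Next, groups receive either compound or vehicle. Finally, survival or tumor dimensions in the dosed animals are divided by the corresponding control figure.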

Setting [1] is: endpoint: median survival time, dose: 6.25 mg/kg/injection, schedule: Q01DX009 (ip), vehicle: saline, higher = longer survival.
Setting [2] is: endpoint: median survival time, dose: 25.0 mg/kg/injection, schedule: Q01DX009 (ip), vehicle: saline, higher = longer survival.
Setting [3] is: endpoint: mean tumor weight, dose: 50.0 mg/kg/injection, schedule: Q01DX011 (ip), vehicle: other, higher = larger tumour.
Where [4] appears, read: endpoint: mean tumor weight, dose: 100.0 mg/kg/injection, schedule: Q01DX011 (ip), vehicle: other, higher = larger tumour.
The mark [5] stands for this setting: endpoint: median survival time, dose: 50.0 mg/kg/injection, schedule: Q01DX009 (ip), vehicle: saline, higher = longer survival.
Where [6] appears, read: endpoint: median survival time, dose: 100.0 mg/kg/injection, schedule: Q01DX009 (ip), vehicle: saline, higher = longer survival.
Where [7] appears, read: endpoint: mean tumor weight, dose: 25.0 mg/kg/injection, schedule: Q01DX011 (sc), vehicle: steriod suspending solution, higher = larger tumour.
[8] abbreviates: endpoint: mean tumor weight, dose: 50.0 mg/kg/injection, schedule: Q01DX011 (sc), vehicle: steriod suspending solution, higher = larger tumour.
The mark [9] stands for this setting: endpoint: mean tumor weight, dose: 100.0 mg/kg/injection, schedule: Q01DX011 (sc), vehicle: steriod suspending solution, higher = larger tumour.
[10] abbreviates: endpoint: mean tumor weight, dose: 222.0 mg/kg/injection, schedule: Q01DX011 (ip), vehicle: other, higher = larger tumour.
Setting [11] is: endpoint: mean tumor weight, dose: 333.0 mg/kg/injection, schedule: Q01DX011 (ip), vehicle: other, higher = larger tumour.
The mark [12] stands for this setting: endpoint: mean tumor weight, dose: 50.0 mg/kg/injection, schedule: Q01DX011 (ip), vehicle: saline, higher = larger tumour.
The mark [13] stands for this setting: endpoint: mean tumor weight, dose: 100.0 mg/kg/injection, schedule: Q01DX011 (ip), vehicle: saline, higher = larger tumour.
The mark [14] stands for this setting: endpoint: mean tumor weight, dose: 200.0 mg/kg/injection, schedule: Q01DX011 (ip), vehicle: saline, higher = larger tumour.

Each structure is given as a SMILES string. Several values for one entry are separate records, joined by “and”; a condition that tells them apart may be missing. Equal entries are not always repeated. Records with an inconclusive call do not appear.

`CC1CN1P(=O)(N1CC1C)N1CC1C` (stereo not drawn): the T/C is 98 % of control under setting [1]; 90 % of control (endpoint: median survival time, dose: 12.5 mg/kg/injection, schedule: Q01DX009 (ip), vehicle: saline, higher = longer survival); 89 % of control under setting [2].

For the molecule `O=NN(CCCl)C(=O)NC1CCS(=O)(=O)C1` (stereo not drawn) (tested in a mixture with another compound), the T/C runs as follows: (endpoint: median survival time, dose: 11.0 mg/kg/injection, schedule: Q01DX001 (ip), vehicle: saline with Tween-80, higher = longer survival) 88 % of control; (endpoint: median survival time, dose: 16.0 mg/kg/injection, schedule: Q01DX001 (ip), vehicle: saline with Tween-80, higher = longer survival) 100 % of control; (endpoint: median survival time, dose: 30.0 mg/kg/injection, schedule: Q01DX001 (ip), vehicle: saline with Tween-80, higher = longer survival) 92 % of control.

Take `Nc1ncnc2c1ncn2C1CCCO1` (stereo not drawn): the T/C runs as follows: under setting [3], 75 % of control; under setting [4], 56 % of control; (endpoint: mean tumor weight, dose: 200.0 mg/kg/injection, schedule: Q01DX011 (ip), vehicle: other, higher = larger tumour) 37 % of control.

With `CNC1C(O)C(NC)C2OC3(O)C(=O)CC(C)OC3OC2C1O` (stereo not drawn), the T/C was 111 % of control under setting [2], 96 % of control under setting [5] and 110 % of control under setting [6].

In the case of `CC1OC(Oc2c(-c3ccc(O)c(O)c3)oc3cc(O)cc(O)c3c2=O)C(O)C(O)C1O` (stereo not drawn), the T/C reads like this: (endpoint: mean tumor weight, dose: 62.5 mg/kg/injection, schedule: Q01DX011 (ip), vehicle: saline, higher = larger tumour) 92 % of control; (endpoint: mean tumor weight, dose: 125.0 mg/kg/injection, schedule: Q01DX011 (ip), vehicle: saline, higher = larger tumour) 93 % of control; (endpoint: mean tumor weight, dose: 250.0 mg/kg/injection, schedule: Q01DX011 (ip), vehicle: saline, higher = larger tumour) 99 % of control; (endpoint: mean tumor weight, dose: 500.0 mg/kg/injection, schedule: Q01DX011 (ip), vehicle: saline, higher = larger tumour) 51 % of control.

Take `CCc1ccc(NC(=O)N(CCCl)N=O)cc1`: the T/C (endpoint: median survival time, dose: 1.9 mg/kg/injection, schedule: Q01DX009 (ip), vehicle: Klucel (hydroxypropylcellulose) (HPC), higher = longer survival) is 108 % of control; the T/C (endpoint: median survival time, dose: 7.5 mg/kg/injection, schedule: Q01DX009 (ip), vehicle: Klucel (hydroxypropylcellulose) (HPC), higher = longer survival) is 98 % of control; the T/C (endpoint: median survival time, dose: 15.0 mg/kg/injection, schedule: Q01DX009 (ip), vehicle: Klucel (hydroxypropylcellulose) (HPC), higher = longer survival) is 95 % of control.

Regarding `COc1c(OC)c(O)c2c(=O)cc(-c3ccc(O)cc3)oc2c1OC`, the T/C by setting is: under setting [7], 100 % of control; under setting [8], 81 % of control; under setting [9], 85 % of control; (endpoint: mean tumor weight, dose: 200.0 mg/kg/injection, schedule: Q01DX011 (sc), vehicle: steriod suspending solution, higher = larger tumour) 68 % of control.

For `COc1ccc(-c2c(CC(=O)O)c3cc(OC)ccc3n2Cc2ccc(Cl)cc2)cc1`, the T/C is, setting by setting: under setting [10], 164 % of control; under setting [11], 151 % of control.

As for `C=C(CC(=O)O)C(=O)O` (tested in a mixture with another compound), the T/C reads like this: (endpoint: median survival time, dose: 3.12 mg/kg/injection, schedule: Q01DX009 (ip), vehicle: other, higher = longer survival) 94 % of control; (endpoint: median survival time, dose: 6.25 mg/kg/injection, schedule: Q01DX009 (ip), vehicle: other, higher = longer survival) 101 % of control; (endpoint: median survival time, dose: 12.5 mg/kg/injection, schedule: Q01DX009 (ip), vehicle: other, higher = longer survival) 103 % of control; (endpoint: median survival time, dose: 25.0 mg/kg/injection, schedule: Q01DX009 (ip), vehicle: other, higher = longer survival) 88 % of control.

Regarding `CCCCC[C@H](O)/C=C/[C@H]1[C@H](O)CC(=O)[C@@H]1C/C=C\CCCC(=O)O`, for the setting “endpoint: median survival time, dose: 50.0 mg/kg/injection, schedule: Q04DX002 (ip), vehicle: saline with Tween-80, higher = longer survival”, the T/C was 95 % of control.

Take `CNNCc1ccc(C(=O)NC(C)C)cc1`: the T/C reads like this: (endpoint: median survival time, dose: 25.0 mg/kg/injection, schedule: Q08HX024 (ip), vehicle: saline, higher = longer survival) 100 % of control; (endpoint: median survival time, dose: 50.0 mg/kg/injection, schedule: Q08HX024 (ip), vehicle: saline, higher = longer survival) 112 % of control.

For `Nc1ncnc2c1ncn2C1OC(CO)C(O)C1O` (stereo not drawn), the T/C under setting [12] was 108 % of control; the T/C under setting [13] was 103 % of control; the T/C under setting [14] is 102 % of control; the T/C (endpoint: mean tumor weight, dose: 400.0 mg/kg/injection, schedule: Q01DX011 (ip), vehicle: saline, higher = larger tumour) is 93 % of control; the T/C (endpoint: median survival time, dose: 70.0 mg/kg/injection, schedule: Q03HX024 (ip), vehicle: saline with Tween-80, higher = longer survival) was 94 % of control; the T/C (endpoint: median survival time, dose: 80.0 mg/kg/injection, schedule: Q03HX024 (ip), vehicle: saline with Tween-80, higher = longer survival) is 98 % of control. Moreover, the T/C by setting is: (endpoint: median survival time, dose: 160.0 mg/kg/injection, schedule: Q03HX024 (ip), vehicle: saline with Tween-80, higher = longer survival) 104 % of control; (endpoint: median survival time, dose: 240.0 mg/kg/injection, schedule: Q03HX024 (ip), vehicle: saline with Tween-80, higher = longer survival) 86 % of control.

As for `O=c1cc(-c2ccc(O)cc2)oc2c(O)c(O)c(O)c(O)c12`, the T/C reads like this: under setting [12], 70 % of control; under setting [13], 73 % of control; under setting [14], 43 % of control.

Regarding `COc1ccc(-c2cc(=O)c3c(OC)c(OC)c(OC)c(OC)c3o2)c(OC)c1`, the T/C is 72 % of control (endpoint: mean tumor weight, dose: 12.5 mg/kg/injection, schedule: Q01DX011 (sc), vehicle: steriod suspending solution, higher = larger tumour); 88 % of control under setting [7]; 87 % of control under setting [8]; 86 % of control under setting [9].

As to `CN(C)CC(Cl)CCl` (stereo not drawn), the T/C under setting [5] is 117 % of control; the T/C under setting [6] is 122 % of control; the T/C (endpoint: median survival time, dose: 200.0 mg/kg/injection, schedule: Q01DX009 (ip), vehicle: saline, higher = longer survival) was 105 % of control.

Take `CN[C@H]1CCc2cc(OC)c(OC)c(OC)c2-c2ccc(OC)c(=O)cc21`: the T/C was 59 % of control (endpoint: mean tumor weight, dose: 0.63 mg/kg/injection, schedule: Q01DX011 (ip), vehicle: saline, higher = larger tumour); 85 % of control (endpoint: mean tumor weight, dose: 1.25 mg/kg/injection, schedule: Q01DX011 (ip), vehicle: saline, higher = larger tumour); 61 % of control (endpoint: mean tumor weight, dose: 2.5 mg/kg/injection, schedule: Q01DX011 (ip), vehicle: saline, higher = larger tumour); 58 % of control and 72 % of control (endpoint: mean tumor weight, dose: 5.0 mg/kg/injection, schedule: Q01DX011 (ip), vehicle: saline, higher = larger tumour); 33 % of control (endpoint: mean tumor weight, dose: 7.0 mg/kg/injection, schedule: Q01DX011 (ip), vehicle: saline, higher = larger tumour).

For the molecule `Nc1ccccc1Br`, the T/C is 114 % of control under setting [10] and 102 % of control under setting [11].

Turning to `S=C(N=Nc1ccccc1)NNc1ccccc1`, the T/C (endpoint: mean tumor weight, dose: 45.0 mg/kg/injection, schedule: Q01DX011 (ip), vehicle: carboxymethylcellulose (CMC), higher = larger tumour) is 60 % of control.

Consider `N=C(N)c1ccc(OCCCOc2ccc(C(=N)N)cc2Br)c(Br)c1`, for which the T/C under setting [1] is 122 % of control.

As to `COC(C(=O)C(O)C(C)O)C1Cc2cc3cc(OC4CC(OC5CC(O)C(O)C(C)O5)C(O)C(C)O4)c(C)c(O)c3c(O)c2C(=O)C1OC1CC(OC2CC(O)C(OC3CC(C)(O)C(O)C(C)O3)C(C)O2)C(O)C(C)O1` (stereo not drawn), the T/C was 93 % of control (endpoint: median survival time, dose: 0.06 mg/kg/injection, schedule: Q01DX009 (ip), vehicle: saline, higher = longer survival); 93 % of control and 123 % of control (endpoint: median survival time, dose: 0.13 mg/kg/injection, schedule: Q01DX009 (ip), vehicle: saline, higher = longer survival); 96 % of control (endpoint: median survival time, dose: 0.25 mg/kg/injection, schedule: Q01DX009 (ip), vehicle: saline, higher = longer survival); 94 % of control (endpoint: median survival time, dose: 0.5 mg/kg/injection, schedule: Q01DX009 (ip), vehicle: saline, higher = longer survival).

On to `CC(C)([NH-])CO.CC(C)([NH-])CO.[Cl][Cd][Cl]`, for which the T/C (endpoint: mean tumor weight, dose: 1.0 mg/kg/injection, schedule: Q01DX011 (ip), vehicle: other, higher = larger tumour) is 122 % of control; the T/C (endpoint: mean tumor weight, dose: 2.0 mg/kg/injection, schedule: Q01DX011 (ip), vehicle: other, higher = larger tumour) was 77 % of control; the T/C (endpoint: mean tumor weight, dose: 4.0 mg/kg/injection, schedule: Q01DX011 (ip), vehicle: other, higher = larger tumour) was 75 % of control; the T/C (endpoint: mean tumor weight, dose: 8.0 mg/kg/injection, schedule: Q01DX011 (ip), vehicle: other, higher = larger tumour) was 97 % of control.

Turning to `CC[C@](O)(C(=O)O)c1cc2n(c(=O)c1CO)Cc1cc3ccccc3nc1-2`, the T/C by setting is: (endpoint: median survival time, dose: 1.0 mg/kg/injection, schedule: Q01DX009 (ip), vehicle: saline, higher = longer survival) 117 % of control; (endpoint: median survival time, dose: 2.0 mg/kg/injection, schedule: Q01DX009 (ip), vehicle: saline, higher = longer survival) 92 % of control.

For the molecule `Cc1ccc(N2CCN(CCCN3CCN(c4ccc(Cl)cc4)CC3)CC2)cc1`, the T/C was 66 % of control (endpoint: mean tumor weight, dose: 12.5 mg/kg/injection, schedule: Q01DX011 (ip), vehicle: other, higher = larger tumour); 108 % of control (endpoint: mean tumor weight, dose: 25.0 mg/kg/injection, schedule: Q01DX011 (ip), vehicle: other, higher = larger tumour); 70 % of control under setting [3]; 50 % of control under setting [4].
